Literature values, collected in patent US10729136B2, “Synergistic herbicidal composition and use thereof” (priority 2015, dated 2020).

Columns and labels:
[1] = 0.05% Rhodasurf DA630 solution, pH 5.5, after 10 days

In the case of `CS(=O)(=O)c1ccc(C(=O)C2C(=O)CCCC2=O)c([N+](=O)[O-])c1` [Form 2, 2-(4-mesyl-2-nitrobenzoyl)cyclohexane-1,3-dione], the “Polymorphic form (microscopy, FT-IR)” value [1] is given as “still predominately Form 2”, the “Polymorphic form of the suspension, determined periodically” value (pH between 3.5 and 4, over 3 weeks) is given as “always found to be Form 2” and the “Time for Form 2 to transform to Form 1” value (stirred aqueous suspension, below pH 2.5) is given as ≤ 1 h. The “Conversion of Form 2 to Form 1 when seeded” value (stirred aqueous suspension, pH 3, seeded with Form 1) was “converted to Form 1 when seeded with Form 1 over four hours” and the “Polymorphic stability of Form 2” value (stirred aqueous suspension, pH 3, unseeded) was “stable”.
